Source: patent publication US9957267B2, “Somatostatin modulators and uses thereof” (Crinetics Pharmaceuticals, Inc., priority 2015, dated 2018)
Read-outs that look alike come from different tables or passages of the source.

Key:
Format in all cases: cell-based
[1] = target: SSTR3 (UniProt P32745); test: cAMP functional agonist assay, CHO cells expressing SSTR3; conditions: CHO cells stably expressing SSTR3, cAMP
Protocol: (§1) Chinese hamster ovary (CHO) cells stably expressing one of the six human or rodent somatostatin receptor subtypes are grown to 85-100% confluence on standard tissue culture dishes in F12-Ham's growth media (Hyclone) with following additives: 10% donor calf serum (Hyclone), 200 U/mL penicillin (Hyclone), 200 μg/mL streptomycin (Hyclone), 20 mM HEPES (Hyclone), 200 μg/mL hygromycin Hyclone.
(§2) General overview: All SSTR subtypes are Gi coupled G-protein coupled receptors (GPCRs) that lead to decreases in intracellular cyclic AMP (cAMP) when activated by an agonist. Therefore, measurement of intracellular cAMP levels can be used to assess whether compounds of the invention are agonists of SSTR subtypes (John Kelly, Troy Stevens, W. Joseph Thompson, and Roland Seifert, Current Protocols in Pharmacology, 2005, 2.2.1-2.2). One example of an intracellular cAMP assay is described below.

[2] = target: T1, SSTR4 (Homo sapiens, UniProt P31391); test: cAMP functional agonist assay, CHO cells expressing SSTR4
T1 construct: expressed in transfected cells
Protocol: as §1
(§3) General overview: All SSTR subtypes are Gi coupled G-protein coupled receptors (GPCRs) that lead to decreases in intracellular cyclic AMP (cAMP) when activated by an agonist. […] One example of an intracellular cAMP assay is described below.

[3] = target: T2, SSTR1 (Homo sapiens, UniProt P30872); test: cAMP functional agonist assay, CHO cells expressing SSTR1
T2 construct: expressed in transfected cells
Protocol: as §1, §3

[4] = target: T3, SSTR5 (Homo sapiens, UniProt P35346); test: cAMP functional agonist assay, CHO cells expressing SSTR5; conditions: CHO cells stably expressing SSTR5, cAMP
T3 construct: expressed in transfected cells
Protocol: as §1, §2

[5] = CHO cells stably expressing SSTR1, cAMP, read-out: SSTR1 EC50

T1 sequence (P31391 whole entry): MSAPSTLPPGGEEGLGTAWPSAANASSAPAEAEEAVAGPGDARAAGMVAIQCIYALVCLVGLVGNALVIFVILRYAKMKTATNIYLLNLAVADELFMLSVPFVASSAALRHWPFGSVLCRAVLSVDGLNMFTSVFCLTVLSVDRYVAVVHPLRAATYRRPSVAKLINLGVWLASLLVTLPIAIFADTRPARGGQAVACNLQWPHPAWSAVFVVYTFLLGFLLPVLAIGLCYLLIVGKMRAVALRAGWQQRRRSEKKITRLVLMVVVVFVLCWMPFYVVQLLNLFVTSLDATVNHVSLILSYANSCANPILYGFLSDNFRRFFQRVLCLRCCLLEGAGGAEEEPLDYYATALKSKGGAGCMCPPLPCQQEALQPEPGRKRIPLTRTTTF
Chain of SSTR3 (P32745 whole entry): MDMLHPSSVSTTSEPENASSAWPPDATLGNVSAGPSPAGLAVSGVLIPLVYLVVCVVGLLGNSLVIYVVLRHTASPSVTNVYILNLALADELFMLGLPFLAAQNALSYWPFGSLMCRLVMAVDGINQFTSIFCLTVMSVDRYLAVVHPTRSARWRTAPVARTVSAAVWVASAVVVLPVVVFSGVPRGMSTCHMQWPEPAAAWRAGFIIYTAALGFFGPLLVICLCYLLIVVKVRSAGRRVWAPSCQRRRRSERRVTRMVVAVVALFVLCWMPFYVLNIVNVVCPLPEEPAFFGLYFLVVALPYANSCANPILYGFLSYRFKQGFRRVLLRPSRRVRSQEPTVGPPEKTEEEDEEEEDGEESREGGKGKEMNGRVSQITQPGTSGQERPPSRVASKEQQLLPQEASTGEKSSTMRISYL
T3 sequence (P35346 whole entry): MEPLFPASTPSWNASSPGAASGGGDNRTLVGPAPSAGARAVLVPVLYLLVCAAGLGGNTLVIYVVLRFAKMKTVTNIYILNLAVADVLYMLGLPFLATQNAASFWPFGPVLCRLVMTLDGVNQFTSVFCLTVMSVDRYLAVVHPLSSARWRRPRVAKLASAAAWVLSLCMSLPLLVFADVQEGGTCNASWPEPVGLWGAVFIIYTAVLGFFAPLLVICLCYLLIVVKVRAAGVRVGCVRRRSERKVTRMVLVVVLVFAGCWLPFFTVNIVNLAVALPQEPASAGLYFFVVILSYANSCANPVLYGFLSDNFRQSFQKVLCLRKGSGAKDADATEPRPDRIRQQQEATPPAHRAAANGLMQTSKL
T2 sequence (P30872 whole entry): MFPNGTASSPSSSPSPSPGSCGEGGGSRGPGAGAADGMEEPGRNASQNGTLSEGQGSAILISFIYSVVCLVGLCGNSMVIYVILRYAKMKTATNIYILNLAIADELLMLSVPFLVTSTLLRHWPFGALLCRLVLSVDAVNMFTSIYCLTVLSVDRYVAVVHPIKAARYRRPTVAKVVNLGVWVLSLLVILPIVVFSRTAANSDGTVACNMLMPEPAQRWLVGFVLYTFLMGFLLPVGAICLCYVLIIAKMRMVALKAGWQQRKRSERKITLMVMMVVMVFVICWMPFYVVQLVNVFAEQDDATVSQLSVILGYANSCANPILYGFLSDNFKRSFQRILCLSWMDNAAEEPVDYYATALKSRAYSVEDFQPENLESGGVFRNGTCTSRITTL

| Compound | EC50 [1] | EC50 [2] | EC50 [3] | EC50 [4] | EC50 ([2]; CHO cells stably expressing SSTR4, cAMP, read-out: SSTR4 EC50) | EC50 [3, 5] |
| --- | --- | --- | --- | --- | --- | --- |
| Cc1cc(C)cc(-c2cnc3ncn(-c4cccc(O)c4)c(=O)c3c2CN(C)C[C@@H]2CCN2)c1 [Compound A-18, 5-({[(2S)-azetidin-2-ylmethyl](methyl)amino}methyl)-6-(3,5-dimethylphenyl)-3-(3-hydroxyphenyl)-3H,4H-pyrido[2,3-d]pyrimidin-4-one] | 100 to 10000 nM | < 100 nM | 100 to 10000 nM | – | – | – |
| Cc1cc(C)cc(-c2cnc3ncn(-c4cccc(C(N)=O)c4)c(=O)c3c2CN(C)C[C@@H]2CCCN2)c1 [Compound A-39, 3-[6-(3,5-dimethylphenyl)-5-({methyl[(2S)-pyrrolidin-2-ylmethyl]amino}methyl)-4-oxo-3H,4H-pyrido[2,3-d]pyrimidin-3-yl]benzamide] | 100 to 10000 nM | < 100 nM | > 10000 nM | > 10000 nM | – | – |
| CNC(=O)c1cccc(-n2cnc3ncc(-c4cc(C)cc(C)c4)c(CN(C)C[C@@H]4CCCN4)c3c2=O)c1 [Compound A-43, 3-[6-(3,5-dimethylphenyl)-5-({methyl[(2S)-pyrrolidin-2-ylmethyl]amino}methyl)-4-oxo-3H,4H-pyrido[2,3-d]pyrimidin-3-yl]-N-methylbenzamide] | 100 to 10000 nM | < 100 nM | – | – | – | – |
| CCN(CCN)Cc1c(-c2cc(C)cc(C)c2)cnc2ncn(-c3cccc(O)c3)c(=O)c12 [Compound A-2, 5-{[(2-aminoethyl)(ethyl)amino]methyl}-6-(3,5-dimethylphenyl)-3-(3-hydroxyphenyl)-3H,4H-pyrido[2,3-d]pyrimidin-4-one] | 100 to 10000 nM | < 100 nM | > 10000 nM | 100 to 10000 nM | – | – |
| Cc1cc(C)cc(-c2cnc3ncn(-c4cccc(O)c4)c(=O)c3c2CN2CCC(N)C2)c1 (centres unmarked) [Compound A-10, 5-[(3-aminopyrrolidin-1-yl)methyl]-6-(3,5-dimethylphenyl)-3-(3-hydroxyphenyl)-3H,4H-pyrido[2,3-d]pyrimidin-4-one] | > 10000 nM | 100 to 10000 nM | – | – | – | – |
| Cc1cc(C)cc(-c2cnc3ncn(-c4cccc(O)c4)c(=O)c3c2CN(C)CCN)c1 [Compound A-1, 5-{[(2-aminoethyl)(methyl)amino]methyl}-6-(3,5-dimethylphenyl)-3-(3-hydroxyphenyl)-3H,4H-pyrido[2,3-d]pyrimidin-4-one] | 100 to 10000 nM | – | > 10000 nM | > 10000 nM | < 100 nM | – |
| Cc1cc(C)cc(-c2cnc3ncn(-c4ccc(O)cc4)c(=O)c3c2CN(C)C[C@@H]2CCCN2)c1 [Compound A-41, 6-(3,5-dimethylphenyl)-3-(4-hydroxyphenyl)-5-({methyl[(2S)-pyrrolidin-2-ylmethyl]amino}methyl)-3H,4H-pyrido[2,3-d]pyrimidin-4-one] | 100 to 10000 nM | < 100 nM | – | – | – | – |
| Cc1cc(C)cc(-c2cnc3ncn(-c4cccc(O)c4)c(=O)c3c2CN2CCCC2CN)c1 (centres unmarked) [Compound A-11, 5-{[2-(aminomethyl)pyrrolidin-1-yl]methyl}-6-(3,5-dimethylphenyl)-3-(3-hydroxyphenyl)-3H,4H-pyrido[2,3-d]pyrimidin-4-one] | – | < 100 nM | 100 to 10000 nM | – | – | – |
| Cc1cc(C)cc(-c2cnc3ncn(-c4cccc(O)c4)c(=O)c3c2CN(C)C(C)CN)c1 (centres unmarked) [Compound A-7, 5-{[(1-aminopropan-2-yl)(methyl)amino]methyl}-6-(3,5-dimethylphenyl)-3-(3-hydroxyphenyl)-3H,4H-pyrido[2,3-d]pyrimidin-4-one] | 100 to 10000 nM | < 100 nM | – | – | – | – |
| COc1cccc(-n2cnc3ncc(-c4cc(C)cc(C)c4)c(CN(C)C[C@@H]4CCCN4)c3c2=O)c1 [Compound A-33, 6-(3,5-dimethylphenyl)-3-(3-methoxyphenyl)-5-({methyl[(2S)-pyrrolidin-2-ylmethyl]amino}methyl)-3H,4H-pyrido[2,3-d]pyrimidin-4-one] | 100 to 10000 nM | < 100 nM | – | – | – | – |
| Cc1cc(C)cc(-c2cnc3ncn(-c4cccc(CO)c4)c(=O)c3c2CN(C)C[C@@H]2CCCN2)c1 [Compound A-40, 6-(3,5-dimethylphenyl)-3-[3-(hydroxymethyl)phenyl]-5-({methyl[(2S)-pyrrolidin-2-ylmethyl]amino}methyl)-3H,4H-pyrido[2,3-d]pyrimidin-4-one] | 100 to 10000 nM | < 100 nM | – | – | – | – |
| Cc1cc(C)cc(-c2cnc3ncn(-c4cccc(O)c4)c(=O)c3c2CN(C)CC2(N)CCCC2)c1 [Compound A-12, 5-({[(1-aminocyclopentyl)methyl](methyl)amino}methyl)-6-(3,5-dimethylphenyl)-3-(3-hydroxyphenyl)-3H,4H-pyrido[2,3-d]pyrimidin-4-one] | 100 to 10000 nM | < 100 nM | – | 100 to 10000 nM | – | – |
| Cc1cc(C)cc(-c2cnc3ncn(-c4cccc(O)c4)c(=O)c3c2CN(C)C[C@H](C)N)c1 [Compound A-8, 5-({[(2S)-2-aminopropyl](methyl)amino}methyl)-6-(3,5-dimethylphenyl)-3-(3-hydroxyphenyl)-3H,4H-pyrido[2,3-d]pyrimidin-4-one] | 100 to 10000 nM | < 100 nM | – | > 10000 nM | – | – |

Other lines, results leading:

| EC50 [1] | EC50 [2] | EC50 [3] | EC50 [4] | EC50 ([2]; CHO cells stably expressing SSTR4, cAMP, read-out: SSTR4 EC50) | EC50 [3, 5] | Compound |
| --- | --- | --- | --- | --- | --- | --- |
| < 100 nM | < 100 nM | 100 to 10000 nM | 100 to 10000 nM | – | – | Cc1cc(Cl)cc(-c2cnc3ncn(-c4cccc(O)c4)c(=O)c3c2CN(C)C[C@@H]2CCCN2)c1 [Compound A-30, 6-(3-chloro-5-methylphenyl)-3-(3-hydroxyphenyl)-5-({methyl[(2S)-pyrrolidin-2-ylmethyl]amino}methyl)-3H,4H-pyrido[2,3-d]pyrimidin-4-one] |
| < 100 nM | < 100 nM | 100 to 10000 nM | – | – | – | Cc1cc(C)cc(-c2cnc3ncn(-c4cccc(O)c4)c(=O)c3c2CN(C)C[C@@H]2CCCN2)c1 [Compound A-17, 6-(3,5-dimethylphenyl)-3-(3-hydroxyphenyl)-5-({methyl[(2S)-pyrrolidin-2-ylmethyl]amino}methyl)-3H,4H-pyrido[2,3-d]pyrimidin-4-one] |
| < 100 nM | < 100 nM | – | > 10000 nM | – | – | Cc1cc(C)cc(-c2cnc3ncn(-c4cccc(O)c4)c(=O)c3c2CN(C)CC2COCCN2)c1 (centres unmarked) [Compound A-19, 6-(3,5-dimethylphenyl)-3-(3-hydroxyphenyl)-5-{[methyl(morpholin-3-ylmethyl)amino]methyl}-3H,4H-pyrido[2,3-d]pyrimidin-4-one] |
| < 100 nM | – | – | 100 to 10000 nM | – | 100 to 10000 nM | Cc1cc(Cl)cc(-c2cnc3ncn(-c4cc(O)cc(F)c4)c(=O)c3c2CN(C)C[C@@H]2CCCN2)c1 [Compound A-47, 6-(3-chloro-5-methylphenyl)-3-(3-fluoro-5-hydroxyphenyl)-5-({methyl[(2S)-pyrrolidin-2-ylmethyl]amino}methyl)-3H,4H-pyrido[2,3-d]pyrimidin-4-one] |
| < 100 nM | < 100 nM | > 10000 nM | > 10000 nM | – | – | Cc1cc(C)cc(-c2cnc3ncn(-c4cccc(O)c4)c(=O)c3c2CN(C)C[C@H]2CCCN2)c1 [Compound A-16, 6-(3,5-dimethylphenyl)-3-(3-hydroxyphenyl)-5-({methyl[(2R)-pyrrolidin-2-ylmethyl]amino}methyl)-3H,4H-pyrido[2,3-d]pyrimidin-4-one] |
| < 100 nM | < 100 nM | 100 to 10000 nM | > 10000 nM | – | – | Cc1cc(C)cc(-c2cnc3ncn(-c4cccc(O)c4)c(=O)c3c2CN(C)CC2CCCCN2)c1 (centres unmarked) [Compound A-13, 6-(3,5-dimethylphenyl)-3-(3-hydroxyphenyl)-5-{[methyl(piperidin-2-ylmethyl)amino]methyl}-3H,4H-pyrido[2,3-d]pyrimidin-4-one] |
| < 100 nM | < 100 nM | 100 to 10000 nM | 100 to 10000 nM | – | – | CN(Cc1c(-c2cc(Cl)cc(CO)c2)cnc2ncn(-c3cccc(O)c3)c(=O)c12)C[C@@H]1CCCN1 [Compound A-38, 6-[3-chloro-5-(hydroxymethyl)phenyl]-3-(3-hydroxyphenyl)-5-({methyl[(2S)-pyrrolidin-2-ylmethyl]amino}methyl)-3H,4H-pyrido[2,3-d]pyrimidin-4-one] |
| < 100 nM | < 100 nM | 100 to 10000 nM | 100 to 10000 nM | – | – | Cc1cc(C)cc(-c2cnc3ncn(-c4cccc(O)c4)c(=O)c3c2CN(C)C[C@@H]2CCCCN2)c1 [Compound A-15, 6-(3,5-dimethylphenyl)-3-(3-hydroxyphenyl)-5-({methyl[(2S)-piperidin-2-ylmethyl]amino}methyl)-3H,4H-pyrido[2,3-d]pyrimidin-4-one] |
| < 100 nM | < 100 nM | 100 to 10000 nM | > 10000 nM | – | – | Cc1cc(C)cc(-c2cnc3ncn(-c4cc(O)cc(F)c4)c(=O)c3c2CN(C)C[C@@H]2CCCN2)c1 [Compound A-45, 6-(3,5-dimethylphenyl)-3-(3-fluoro-5-hydroxyphenyl)-5-({methyl[(2S)-pyrrolidin-2-ylmethyl]amino}methyl)-3H,4H-pyrido[2,3-d]pyrimidin-4-one] |
| < 100 nM | – | – | > 10000 nM | – | 100 to 10000 nM | Cc1cc(Cl)cc(-c2cnc3ncn(-c4cc(O)cc(F)c4)c(=O)c3c2CN(C)C[C@H]2CCCN2)c1 [Compound A-53, 6-(3-chloro-5-methylphenyl)-3-(3-fluoro-5-hydroxyphenyl)-5-({methyl[(2R)-pyrrolidin-2-ylmethyl]amino}methyl)-3H,4H-pyrido[2,3-d]pyrimidin-4-one] |
